Some results are limits rather than exact numbers.

The results in this text go back to patent publication US20140057915A1, “KINASE INHIBITORS” (TOPIVERT PHARMA LIMITED, priority 2012, published 2014).

Series [1] deals with Syk (Homo sapiens, UniProt P43405). Briefly: Syk enzyme inhibition (FRET). In kind it is biochemical. As to conditions: Table 4a1. The procedure:
(§1) The enzyme inhibitory activities of compounds disclosed herein are determined by FRET using synthetic peptides labelled with both donor and acceptor fluorophores (Z-LYTE, Invitrogen Ltd., Paisley, UK).
(§2) The relevant enzyme (3000 ng/mL or 2000 ng/mL respectively, 2.5 μL) is incubated with the test compound (either 4 μg/mL, 0.4 μg/mL, 0.04 μg/mL, or 0.004 μg/mL, 2.5 μL each) for 2 hr at RT. The FRET peptides (8 μM, 2.5 μL), and appropriate ATP solutions (2.5 μL, 800 μM for c-Src, and 60 μM ATP for Syk) are then added to the enzymes/compound mixtures and incubated for 1 hr. Development reagent (protease, 5 μL) is added for 1 hr prior to detection in a fluorescence microplate reader (Varioskan® Flash, ThermoFisher Scientific).
(§3) In all cases, the site-specific protease cleaves non-phosphorylated peptide only and eliminates the FRET signal. Phosphorylation levels of each reaction are calculated using the ratio of coumarin emission (donor) over fluorescein emission (acceptor), for which high ratios indicate high phosphorylation and low ratios indicate low phosphorylation levels.

Series [2] relates to IL-8 release, d-U937 cells. Put plainly: LPS-induced IL-8 release in d-U937 cells. The class given is cell-based. As to conditions: Homo sapiens, dU937; Table 4c1; read-out: LPS Induced Release of Cytokine in d-U937 Cells, IL-8 IC50. How it is done: (§4) (a) LPS-Induced TNFα/IL-8 Release in d-U937Cells
U937 cells, a human monocytic cell line, are differentiated into macrophage-type cells by incubation with PMA (100 ng/mL) for 48 to 72 hr. Cells are pre-incubated with final concentrations of test compound for 2 hr and are then stimulated with LPS (0.1 μg/mL; from E. Coli: 0111:B4, Sigma) for 4 hr. […] The relative 50% effective concentration (REC50) is determined from the resultant concentration-response curve.

Series [3] addresses GSK3α (Homo sapiens, UniProt P49840). Put plainly: GSK 3α enzyme inhibition (FRET), Method 1. The class given is biochemical. As to conditions: Table 4a1. How it is done: as §1
The following two assay variants are used for determination of GSK 3a inhibition.
The inhibitory activities of compounds of the invention against the GSK 3a enzyme isoform (Invitrogen), are evaluated by determining the level of activation/phosphorylation of the target peptide. The GSK3-α protein (500 ng/mL, 2.5 μL) is mixed with the test compound (2.5 μL at either 4 μg/mL, 0.4 μg/mL, 0.04 μg/mL, or 0.004 μg/mL) for 2 hr at RT. The FRET peptide (8 μM, 2.5 μL), which is a phosphorylation target for GSK3α, and ATP (40 μM, 2.5 μL) are then added to the enzyme/compound mixture and the resulting mixture incubated for 1 hr. Development reagent (protease, 5 μL) is added for 1 hr prior to detection in a fluorescence microplate reader (Varioskan® Flash, ThermoFisher Scientific).
as §3

Series [4] concerns ICAM-1 expression, BEAS2B cells. Briefly: Poly I:C-induced ICAM-1 expression in BEAS2B cells. The class given is cell-based. As to conditions: Homo sapiens, BEAS-2B; read-out: Poly IC induced ICAM1 in BEAS2B, IC50. The procedure:
(f) Poly I:C-Induced ICAM-1 Expression in BEAS2B Cells
Poly I:C is used in these studies as a simple, RNA virus mimic. Poly I:C-Oligofectamine mixture (1 μg/mL Poly I:C, ±2% Oligofectamine, 25 μL; Invivogen Ltd., San Diego, Calif., and Invitrogen, Carlsbad, Calif., respectively) is transfected into BEAS2B cells (human bronchial epithelial cells, ATCC). Cells are pre-incubated with final concentrations of test compounds for 2 hr and the level of ICAM1 expression on the cell surface is determined by cell-based ELISA. At a time point 18 hr after poly I:C transfection, cells are fixed with 4% formaldehyde in PBS (100 μL) and then endogenous peroxidase is quenched by the addition of washing buffer (100 μL, 0.05% Tween in PBS: PBS-Tween) containing 0.1% sodium azide and 1% hydrogen peroxide. Cells are washed with wash-buffer (3×200 μL). and after blocking the wells with 5% milk in PBS-Tween (100 μL) for 1 hr, the cells are incubated with anti-human ICAM-1 antibody (50 μL; Cell Signalling Technology, Danvers, Mass.) in 1% BSA PBS overnight at 4° C.
The cells are washed with PBS-Tween (3×200 μL) and incubated with the secondary antibody (100 μL; HRP-conjugated anti-rabbit IgG, Dako Ltd., Glostrup, Denmark). […] The ICAM-1 signal is detected by reading the absorbance at 450 nm against a reference wavelength of 655 nm using a spectrophotometer. The cells are then washed with PBS-Tween (3×200 μL) and total cell numbers in each well are determined by reading absorbance at 595 nm after Crystal Violet staining (50 μL of a 2% solution in PBS) and elution by 1% SDS solution (100 μL) in distilled water. The measured OD 450-655 readings are corrected for cell number by dividing with the OD595 reading in each well. The inhibition of ICAM-1 expression is calculated at each concentration of test compound by comparison with vehicle control.

The test system of series [5] is d-U937 cells. Put plainly: Cell viability: MTT assay. As to conditions: 1 μg/mL. In kind it is cell-based, human. The procedure:
(l) The Effect of Test Compounds on Cell Viability: MTT Assay
Differentiated U937 cells are pre-incubated with each test compound (final concentration 1 μg/mL or 10 μg/mL in 200 μL media indicated below) under two protocols: the first for 4 hr in 5% FCS RPMI1640 media and the second in 10% FCS RPMI1640 media for 24 h. The supernatant is replaced with new media (200 μL) and MTT stock solution (10 μL, 5 mg/mL) is added to each well. After incubation for 1 hr the media are removed, DMSO (200 μL) is added to each well and the plates are shaken lightly for 1 hr prior to reading the absorbance at 550 nm. The percentage loss of cell viability is calculated for each well relative to vehicle (0.5% DMSO) treatment. Consequently an apparent increase in cell viability for drug treatment relative to vehicle is tabulated as a negative percentage.
A general note: Tetrazolium assays rely on reduction of a dye to a coloured formazan, in cell work by metabolically active cells.

For series [6], the target named is cSrc (Homo sapiens, UniProt P12931). Put plainly: c-Src enzyme inhibition (FRET). In kind it is biochemical. The conditions noted are these: Table 4a1. How it is done:
as §1, §2, §3

In series [7] the test system is TNFα release, d-U937 cells. Put plainly: LPS-induced TNFα release in d-U937 cells. In kind it is cell-based. As to conditions: Homo sapiens, dU937; relative to 10 μg/mL BIRB796; Table 4c1; read-out: LPS Induced Release of Cytokine in d-U937 Cells, TNFα REC50. The procedure:
as §4
U937 cells, a human monocytic cell line, are differentiated into macrophage-type cells by incubation with PMA (100 ng/mL) for 48 to 72 hr. Cells are pre-incubated with final concentrations of test compound for 2 hr and are then stimulated with LPS (0.1 μg/mL; from E. Coli: 0111:B4, Sigma) for 4 hr. The supernatant is collected for determination of TNFα and IL-8 concentrations by sandwich ELISA (Duo-set, R&D systems). […] The relative 50% effective concentration (REC50) is determined from the resultant concentration-response curve. The inhibition of IL-8 production is calculated at each concentration of test compound by comparison with vehicle control.

Chain of GSK3α (P49840 whole entry): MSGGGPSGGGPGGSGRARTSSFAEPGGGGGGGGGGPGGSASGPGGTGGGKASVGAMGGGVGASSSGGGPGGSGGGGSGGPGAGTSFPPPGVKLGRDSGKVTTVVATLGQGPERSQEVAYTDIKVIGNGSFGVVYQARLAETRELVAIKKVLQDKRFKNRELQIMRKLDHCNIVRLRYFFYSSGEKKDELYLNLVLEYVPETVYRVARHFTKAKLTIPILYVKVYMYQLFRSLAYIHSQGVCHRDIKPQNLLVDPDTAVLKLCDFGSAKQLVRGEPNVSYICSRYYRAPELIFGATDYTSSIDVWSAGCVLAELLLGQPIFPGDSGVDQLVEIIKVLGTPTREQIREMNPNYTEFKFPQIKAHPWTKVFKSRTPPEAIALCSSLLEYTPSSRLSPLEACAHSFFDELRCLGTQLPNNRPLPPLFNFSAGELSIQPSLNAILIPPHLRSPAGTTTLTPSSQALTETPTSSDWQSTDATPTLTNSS
Chain of cSrc (P12931 whole entry): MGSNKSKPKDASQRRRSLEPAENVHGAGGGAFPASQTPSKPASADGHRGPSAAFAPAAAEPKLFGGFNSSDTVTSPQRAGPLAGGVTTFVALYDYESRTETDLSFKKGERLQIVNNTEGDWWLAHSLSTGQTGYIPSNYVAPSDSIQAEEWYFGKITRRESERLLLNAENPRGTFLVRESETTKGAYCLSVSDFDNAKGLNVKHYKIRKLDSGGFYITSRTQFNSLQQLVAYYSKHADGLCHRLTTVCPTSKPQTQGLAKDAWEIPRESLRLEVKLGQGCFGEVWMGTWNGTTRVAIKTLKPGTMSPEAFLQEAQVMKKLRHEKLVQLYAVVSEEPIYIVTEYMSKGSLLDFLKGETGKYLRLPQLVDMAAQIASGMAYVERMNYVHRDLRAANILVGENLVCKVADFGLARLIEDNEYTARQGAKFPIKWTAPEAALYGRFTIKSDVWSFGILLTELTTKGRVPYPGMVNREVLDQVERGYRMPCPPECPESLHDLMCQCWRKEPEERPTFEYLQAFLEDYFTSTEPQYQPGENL

As to `Cc1ccc(-n2nc(C(C)(C)C)cc2NC(=O)Nc2ccc(Oc3ccnc(Nc4cccc(C(=O)NCCN5CCN(C)CC5)c4)n3)c3ccccc23)cc1` [Example 25, 3-((4-((4-(3-(3-(tert-butyl)-1-(p-tolyl)-1H-pyrazol-5-yl)ureido)naphthalen-1-yl)oxy)pyrimidin-2-yl)amino)-N-(2-(4-methylpiperazin-1-yl)ethyl)benzamide], the IC50 (usually the midpoint of a concentration-inhibition curve) in series [1] was more than 1330 nM; in series [2], 1.5 nM; in series [3], 285 nM; in series [4], 1.9 nM; in series [6] it was 4 nM. Further, the “Cell viability at time point in d-U937 cells, 4 h” value in series [5] is “−ve (−ve and +ve indicate that the value is below and above respectively, the no significant effect threshold, defined as 30% inhibition at 1 μg/mL at the time point indicated)”. Also, the “Cell viability at time point in d-U937 cells, 24 h” value (“Cell viability at time point … 24 h” for short) in series [5] was “−ve (−ve and +ve indicate that the value is below and above respectively, the no significant effect threshold, defined as 30% inhibition at 1 μg/mL at the time point indicated)”. Besides, the EC50 in series [7] is 0.6 nM.

Turning to `COc1ccc(-n2nc(C3CCCO3)cc2NC(=O)Nc2ccc(Oc3ccnc(Nc4cc(OC)cc(C(=O)NCCN5CCOCC5)c4)n3)c3ccccc23)cc1` (stereo not shown) [Example 58, 3-methoxy-5-((4-((4-(3-(1-(4-methoxyphenyl)-3-(tetrahydrofuran-2-yl)-1H-pyrazol-5-yl)ureido)naphthalen-1-yl)oxy)pyrimidin-2-yl)amino)-N-(2-morpholinoethyl)benzamide], the IC50 in series [1] was 296 nM; in series [2], 46.3 nM; in series [3], 8470 nM; in series [4], 2.1 nM; in series [6], less than 1 nM. Besides, the “Cell viability at time point in d-U937 cells, 4 h” value in series [5] is “−ve (−ve and +ve indicate that the value is below and above respectively, the no significant effect threshold, defined as 30% inhibition at 1 μg/mL at the time point indicated)”. Further, in series [5], the “Cell viability at time point … 24 h” value is “−ve (−ve and +ve indicate that the value is below and above respectively, the no significant effect threshold, defined as 30% inhibition at 1 μg/mL at the time point indicated)”. Also, the EC50 in series [7] was found to be 11.7 nM.

Take `COCCNC(=O)c1cc(Nc2nccc(Oc3ccc(NC(=O)Nc4cc(C(C)C)nn4-c4ccc(C)cc4)c4ccccc34)n2)cc(OC)c1` [Example 66, 3-((4-((4-(3-(3-isopropyl-1-(p-tolyl)-1H-pyrazol-5-yl)ureido)naphthalen-1-yl)oxy)pyrimidin-2-yl)amino)-5-methoxy-N-(2-methoxyethyl)benzamide]: the IC50 is 234 nM in series [1]; 3.4 nM in series [2]; more than 14300 nM in series [3]; 2.2 nM in series [4]; 6 nM in series [6]. Also, in series [5], the “Cell viability at time point in d-U937 cells, 4 h” value was “−ve (−ve and +ve indicate that the value is below and above respectively, the no significant effect threshold, defined as 30% inhibition at 1 μg/mL at the time point indicated)”. In addition, the “Cell viability at time point … 24 h” value in series [5] was “−ve (−ve and +ve indicate that the value is below and above respectively, the no significant effect threshold, defined as 30% inhibition at 1 μg/mL at the time point indicated)”. Besides, the EC50 in series [7] was 1.6 nM.

In the case of `COc1ccc(-n2nc(C(C)C)cc2NC(=O)Nc2ccc(Oc3cc(Nc4cc(OC)cc(C(=O)NCCN5CCOCC5)c4)ncn3)c3ccccc23)cc1` [Example 14, 3-((6-((4-(3-(3-isopropyl-1-(4-methoxyphenyl)-1H-pyrazol-5-yl)ureido)naphthalen-1-yl)oxy)pyrimidin-4-yl)amino)-5-methoxy-N-(2-morpholinoethyl)benzamide], the IC50 was more than 1300 nM in series [1]; 5 nM in series [2]; 355 nM in series [3]; 3 nM in series [4]; 4 nM in series [6]. Further, in series [5], the “Cell viability at time point in d-U937 cells, 4 h” value is “−ve (−ve and +ve indicate that the value is below and above respectively, the no significant effect threshold, defined as 30% inhibition at 1 μg/mL at the time point indicated)”. For the same compound, in series [5], the “Cell viability at time point … 24 h” value was “+ve (−ve and +ve indicate that the value is below and above respectively, the no significant effect threshold, defined as 30% inhibition at 1 μg/mL at the time point indicated)”. Moreover, the EC50 in series [7] turned out to be 1.2 nM.

As to `COc1ccc(-n2nc(C3CCOC3)cc2NC(=O)Nc2ccc(Oc3ccnc(Nc4cc(OC)cc(C(=O)NCCN5CCOCC5)c4)n3)c3ccccc23)cc1` (stereo not shown) [Example 59, 3-methoxy-5-((4-((4-(3-(1-(4-methoxyphenyl)-3-(tetrahydrofuran-3-yl)-1H-pyrazol-5-yl)ureido)naphthalen-1-yl)oxy)pyrimidin-2-yl)amino)-N-(2-morpholinoethyl)benzamide], the IC50 is 12 nM in series [1]; 6.8 nM in series [2]; 1190 nM in series [3]; 39.7 nM in series [4]; less than 1 nM in series [6]. The “Cell viability at time point in d-U937 cells, 4 h” value in series [5] is “−ve (−ve and +ve indicate that the value is below and above respectively, the no significant effect threshold, defined as 30% inhibition at 1 μg/mL at the time point indicated)”. Further, the “Cell viability at time point … 24 h” value in series [5] was “−ve (−ve and +ve indicate that the value is below and above respectively, the no significant effect threshold, defined as 30% inhibition at 1 μg/mL at the time point indicated)”. The EC50 in series [7] came out at 2 nM.
